{"source": "ChEMBL document CHEMBL5230132", "about": "“Cannabinoid Receptor Subtype 2 (CB2R) in a Multitarget Approach: Perspective of an Innovative Strategy in Cancer and Neurodegeneration” (J Med Chem, 2020)", "key": {"[1]": {"biological_target": "T1, Cannabinoid receptor 1 (Homo sapiens, UniProt P21554)", "T1 sequence (P21554 whole entry)": "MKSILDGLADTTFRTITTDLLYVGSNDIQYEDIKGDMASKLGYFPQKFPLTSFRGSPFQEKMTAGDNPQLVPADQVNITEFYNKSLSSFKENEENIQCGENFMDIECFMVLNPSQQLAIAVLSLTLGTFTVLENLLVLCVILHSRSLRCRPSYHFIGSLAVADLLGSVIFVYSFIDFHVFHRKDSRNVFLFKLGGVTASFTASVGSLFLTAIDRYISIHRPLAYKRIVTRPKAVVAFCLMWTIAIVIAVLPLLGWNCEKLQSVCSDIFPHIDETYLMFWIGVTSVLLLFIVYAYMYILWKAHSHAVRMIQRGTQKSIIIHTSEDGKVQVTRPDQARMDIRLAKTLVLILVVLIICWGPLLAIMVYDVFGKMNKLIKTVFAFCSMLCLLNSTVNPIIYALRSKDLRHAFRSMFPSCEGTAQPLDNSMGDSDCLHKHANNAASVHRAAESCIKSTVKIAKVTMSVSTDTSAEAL", "assay": "Binding affinity to CB1 receptor (unknown origin) assessed as inhibition constant"}, "[2]": {"biological_target": "T2, Cannabinoid receptor 2 (Homo sapiens, UniProt P34972)", "T2 sequence (P34972 whole entry)": "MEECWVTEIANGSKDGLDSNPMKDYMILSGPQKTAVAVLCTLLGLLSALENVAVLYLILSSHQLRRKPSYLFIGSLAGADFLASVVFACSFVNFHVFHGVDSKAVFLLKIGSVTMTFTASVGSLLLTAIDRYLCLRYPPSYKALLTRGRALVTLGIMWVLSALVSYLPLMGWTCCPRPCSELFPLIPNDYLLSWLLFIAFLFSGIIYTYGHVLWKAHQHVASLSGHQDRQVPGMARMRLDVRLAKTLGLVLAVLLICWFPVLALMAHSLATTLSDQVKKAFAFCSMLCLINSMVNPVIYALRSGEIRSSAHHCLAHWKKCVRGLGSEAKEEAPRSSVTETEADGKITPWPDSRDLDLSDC", "assay": "Binding affinity to CB2 receptor (unknown origin) assessed as inhibition constant"}, "[3]": {"biological_target": "T1, Cannabinoid receptor 1", "assay": "Displacement of [3H]CP55940 from human CB1 receptor"}, "[4]": {"biological_target": "T2, Cannabinoid receptor 2", "assay": "Displacement of [3H]CP55940 from human CB2 receptor"}, "[5]": {"biological_target": "T2, Cannabinoid receptor 2", "assay": "Displacement of [3H]CP55940 from CB2 receptor (unknown origin) expressed in HEK cell membrane measured after 90 mins by competitive binding assay", "type": "cell membranes"}, "[6]": {"biological_target": "Cannabinoid receptor 1 (Rattus norvegicus, UniProt P20272)", "sequence (P20272 whole entry)": "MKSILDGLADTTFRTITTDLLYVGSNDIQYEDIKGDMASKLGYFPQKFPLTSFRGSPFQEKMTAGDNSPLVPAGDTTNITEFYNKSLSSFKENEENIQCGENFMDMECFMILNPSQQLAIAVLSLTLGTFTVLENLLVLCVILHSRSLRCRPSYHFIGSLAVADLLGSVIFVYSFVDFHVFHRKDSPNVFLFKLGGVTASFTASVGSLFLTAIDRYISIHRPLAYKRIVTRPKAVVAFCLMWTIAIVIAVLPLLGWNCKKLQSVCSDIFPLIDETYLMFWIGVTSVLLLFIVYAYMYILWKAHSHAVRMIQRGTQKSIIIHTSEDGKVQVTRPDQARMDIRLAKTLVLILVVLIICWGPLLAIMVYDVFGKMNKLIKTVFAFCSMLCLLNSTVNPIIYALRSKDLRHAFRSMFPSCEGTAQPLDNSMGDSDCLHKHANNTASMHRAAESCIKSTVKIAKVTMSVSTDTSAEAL", "assay": "Displacement of [3H]CP55940 from rat brain membrane CB1 receptor assessed as inhibition constant incubated for 1 hr by liquid scintillation counting method", "type": "cell membranes"}, "[7]": {"biological_target": "T2, Cannabinoid receptor 2", "assay": "Displacement of [3H]CP55940 from human CB2 receptor expressed in HEK293 cell membrane assessed as inhibition constant incubated for 1 hr by liquid scintillation counting method", "type": "cell membranes"}, "[8]": {"biological_target": "T1, Cannabinoid receptor 1", "assay": "Binding affinity to human CB1 receptor stably expressing CHO cells assessed as inhibition constant by radioligand binding assay", "type": "cell-based"}, "[9]": {"biological_target": "Cholinesterase (Homo sapiens) (UniProt P06276)", "sequence (P06276 whole entry)": "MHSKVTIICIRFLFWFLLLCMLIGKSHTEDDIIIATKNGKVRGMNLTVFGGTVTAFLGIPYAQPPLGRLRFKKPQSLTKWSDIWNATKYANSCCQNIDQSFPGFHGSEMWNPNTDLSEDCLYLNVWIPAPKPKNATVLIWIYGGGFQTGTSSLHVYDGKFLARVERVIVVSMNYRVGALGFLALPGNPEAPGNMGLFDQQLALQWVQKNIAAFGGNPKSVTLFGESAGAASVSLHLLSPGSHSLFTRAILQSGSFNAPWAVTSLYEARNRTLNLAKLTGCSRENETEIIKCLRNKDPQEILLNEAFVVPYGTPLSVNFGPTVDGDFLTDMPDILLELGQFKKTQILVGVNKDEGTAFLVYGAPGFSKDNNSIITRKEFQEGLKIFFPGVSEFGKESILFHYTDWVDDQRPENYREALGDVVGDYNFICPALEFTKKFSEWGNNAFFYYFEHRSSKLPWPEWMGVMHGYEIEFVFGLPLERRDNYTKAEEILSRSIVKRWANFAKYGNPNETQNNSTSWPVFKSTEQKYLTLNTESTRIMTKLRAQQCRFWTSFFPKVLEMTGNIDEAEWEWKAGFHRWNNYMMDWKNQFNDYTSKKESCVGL", "assay": "Inhibition of human BChE at 10 uM relative to control"}, "[10]": {"biological_target": "T1, Cannabinoid receptor 1", "assay": "Displacement of [3H]CP55940 from human CB1 receptor stably expressed in CHO cells at 10 uM by radioligand binding assay relative to control", "type": "cell-based"}, "[11]": {"biological_target": "T2, Cannabinoid receptor 2", "assay": "Binding affinity to human CB2 receptor stably expressed in HEK cells assessed as inhibition constant by […]", "type": "cell-based"}}, "note": "pKi: −log10 of the molar value."}
{"smiles": "CCCn1c(C)c(C(=O)c2ccc3ccccc3c2)c2ccccc21", "values": [{"measurement": "pKi", "setting": "[1]", "value": 6.42}, {"measurement": "pKi", "setting": "[2]", "value": 7.86}]}
{"smiles": "O=C(c1ccc2ccccc2c1)c1cn2c3c(cccc13)OCC2CN1CCOCC1", "note": "(stereo not drawn)", "values": [{"measurement": "pKi", "setting": "[3]", "value": 7.21}, {"measurement": "pKi", "setting": "[4]", "value": 8.48}]}
{"smiles": "CN1CCCCC1Cn1cc(C(=O)c2cc([N+](=O)[O-])ccc2I)c2ccccc21", "note": "(stereo not drawn)", "values": [{"measurement": "pKi", "setting": "[5]", "value": 8.15}]}
{"smiles": "CCC(C)(C)c1ccc2c(c1)OC(C)(C)C1CC=C(C)CC21", "note": "(stereo not drawn)", "values": [{"measurement": "pKi", "setting": "[6]", "value": 5.64}, {"measurement": "pKi", "setting": "[7]", "value": 7.85}]}
{"smiles": "CCCC(C)(C)c1ccc2c(c1)OC(C)(C)C1CC=C(C)CC21", "note": "(stereo not drawn)", "values": [{"measurement": "pKi", "setting": "[6]", "value": 6.17}, {"measurement": "pKi", "setting": "[7]", "value": 8.47}]}
{"smiles": "CCOc1ccc(Cc2nc3cc(C(=O)N(CC)CC)ccc3n2CCC(C)C)cc1", "values": [{"measurement": "pKi", "setting": "[8]", "value": "< 5.30"}]}
{"smiles": "CCN(CC)C(=O)c1ccc2c(c1)nc(Nc1ccc(Oc3ccccc3)cc1)n2CCC(C)C", "values": [{"measurement": "inhibition", "setting": "[9]", "value": 2, "unit": "%"}]}
{"smiles": "CCOc1ccc(Nc2nc3cc(C(=O)N(CC)CC)ccc3n2CCC(C)C)cc1", "values": [{"measurement": "Activity", "setting": "[10]", "value": 13, "unit": "%"}, {"measurement": "pKi", "setting": "[11]", "value": 8.72}]}
